From ChEMBL document CHEMBL5505992, “Novel membrane-targeting isoxanthohumol-amine conjugates for combating methicillin-resistant Staphylococcus aureus (MRSA) infections” (Eur J Med Chem, 2024)
Active and inactive are the calls of the source. No cut-off for these calls is given here.

Assays:
Staphylococcus aureus [1] = assay: Bactericidal activity against Staphylococcus aureus ATCC 29213 assessed as bacterial killing at 8 times MIC measured within 0.5 to 1 hrs by time kill assay relative to control; format: functional; conditions: time 0.5-1 hrs
Staphylococcus aureus [2] = assay: Bactericidal activity against methicillin-resistant Staphylococcus aureus clinical isolate MRSA-16 assessed as bacterial killing measured upto 8 hrs by time kill assay; format: functional, organism-based
Staphylococcus aureus [3] = assay: Antibacterial activity against Staphylococcus aureus ATCC 29213 at sub-inhibitory concentration measured after 20 passages for 16 to 18 hrs; format: functional, organism-based; conditions: time 16-18 hrs
Staphylococcus aureus [4] = assay: Antibacterial activity against Staphylococcus aureus ATCC 29213 measured after 20 passages for 16 to 18 hrs; format: functional; conditions: time 16-18 hrs
Staphylococcus aureus [5] = assay: Induction of morphological changes in methicillin-resistant Staphylococcus aureus clinical isolate MRSA-16 assessed as ruptured cell surface at 16 ug/ml incubated for 4 hrs by SEM analysis; format: functional, organism-based; conditions: dose 16.0 µg/ml
Cell membrane [6] = assay: Induction of cell membrane depolarization in methicillin-resistant Staphylococcus aureus clinical isolate MRSA-16 assessed as fold increase in fluorescence intensity at 32 ug/ml measured every 2 mins for 20 mins by DISC3(5) staining based analysis; format: cell membranes; conditions: dose 32.0 µg/ml
Cell membrane [7] = assay: Induction of cytoplasmic membrane depolarization in methicillin-resistant Staphylococcus aureus clinical isolate MRSA-16 assessed as increase in fluorescence intensity at 8 to 32 ug/ml measured every 2 mins for 20 mins by SYTOX green staining based analysis; format: cell membranes; conditions: dose 8-32 µg/ml
Cell membrane [8] = assay: Induction of cytoplasmic membrane depolarization in methicillin-resistant Staphylococcus aureus clinical isolate MRSA-16 assessed as fold increase in fluorescence intensity at 32 ug/ml measured every 2 mins for 20 mins by SYTOX green staining based analysis; format: cell membranes; conditions: dose 32.0 µg/ml
Cell membrane [9] = assay: Induction of cell membrane permeability in methicillin-resistant Staphylococcus aureus clinical isolate MRSA-16 assessed as dead cells (Q1 region) at 32 ug/ml incubated for 2 hrs by SYTO 9 and PI staining based flow cytometry analysis (reference value: 0.00%); format: cell membranes; conditions: dose 32.0 µg/ml
Cell membrane [10] = assay: Induction of cell membrane permeability in methicillin-resistant Staphylococcus aureus clinical isolate MRSA-16 assessed as decrease in intact cells (Q3 region) at 64 ug/ml incubated for 2 hrs by SYTO 9 and PI staining based flow cytometry analysis (reference value: 99.07%); format: cell membranes; parameters: scale not given: the % may be the effect or the level left; conditions: dose 64.0 µg/ml
Cell membrane [11] = assay: Induction of cell membrane permeability in methicillin-resistant Staphylococcus aureus clinical isolate MRSA-16 assessed as increase in damaged cells (Q2 region) at 64 ug/ml incubated for 2 hrs by SYTO 9 and PI staining based flow cytometry analysis (reference value: 0.91%); format: cell membranes; conditions: dose 64.0 µg/ml
[12] = Cytotoxicity against human L02 cells assessed as cell viability at <=16 ug/ml by CCK-8 method relative to control; format: toxicity, cell-based; conditions: up to 16 µg/mL, read-out: Activity
[13] = Toxicity in Kunming mouse assessed as animal death at 20 mg/kg, sc measured after 24 hrs; format: organism-based; conditions: in vivo
[14] = Toxicity in Kunming mouse assessed as animal death at 5 to 10 mg/kg, sc measured after 24 hrs; format: organism-based; conditions: in vivo, dose 5-10 mg/kg
[15] = Toxicity in Kunming mouse assessed as histopathological abnormalities in spleen at 10 mg/kg, sc measured after 24 hrs by H and E staining based analysis; format: organism-based; conditions: in vivo
[16] = Toxicity in Kunming mouse assessed as histopathological abnormalities in lung at 10 mg/kg, sc measured after 24 hrs by H and E staining based analysis; format: organism-based; conditions: in vivo
[17] = Toxicity in Kunming mouse assessed as histopathological abnormalities in kidney at 10 mg/kg, sc measured after 24 hrs by H and E staining based analysis; format: organism-based; conditions: in vivo
Staphylococcus aureus [18] = assay: Antibacterial activity against methicillin-resistant Staphylococcus aureus infected in Kunming mouse skin infection model assessed as effect on skin lesions in subcutaneous tissue at 8 mg/kg,sc measured after 24 hrs; format: functional, organism-based
Staphylococcus aureus [19] = assay: Antibacterial activity against methicillin-resistant Staphylococcus aureus infected in Kunming mouse skin infection model assessed as effect on skin abscesses in dorsal surface at 4 mg/kg,sc measured after 24 hrs; format: functional, organism-based
Staphylococcus aureus [20] = assay: Antibacterial activity against methicillin-resistant Staphylococcus aureus infected in Kunming mouse skin infection model assessed as reduction in inflammatory cells at 4 to 8 mg/kg,sc measured after 24 hrs; format: functional, organism-based; conditions: dose 4-8 mg/kg
Staphylococcus aureus [21] = assay: Antibacterial activity against methicillin-resistant Staphylococcus aureus infected in Kunming mouse skin infection model assessed as appearance of small number of infiltrated inflammatory cells in skin dermis at 8 mg/kg,sc measured after 24 hrs; format: functional, organism-based
Staphylococcus aureus [22] = assay: Antibacterial activity against methicillin-resistant Staphylococcus aureus infected in Kunming mouse skin infection model assessed as decrease in bacterial load at 4 mg/kg,sc measured after 24 hrs relative to control; format: functional; parameters: scale not given: the % may be the effect or the level left
Staphylococcus aureus [23] = assay: Antibacterial activity against methicillin-resistant Staphylococcus aureus infected in Kunming mouse skin infection model assessed as decrease in bacterial load at 4 mg/kg,sc measured after 24 hrs; format: functional
[24] = Toxicity in Kunming mouse assessed as effect on heart at 4 to 8 mg/kg, sc measured after 24 hrs by H and E staining based analysis; format: organism-based; conditions: in vivo, dose 4-8 mg/kg
[25] = Toxicity in Kunming mouse assessed as effect on spleen at 4 to 8 mg/kg, sc measured after 24 hrs by H and E staining based analysis; format: organism-based; conditions: in vivo, dose 4-8 mg/kg
[26] = Toxicity in Kunming mouse assessed as effect on lung at 4 to 8 mg/kg, sc measured after 24 hrs by H and E staining based analysis; format: organism-based; conditions: in vivo, dose 4-8 mg/kg
[27] = Toxicity in Kunming mouse assessed as effect on kidney at 4 to 8 mg/kg, sc measured after 24 hrs by H and E staining based analysis; format: organism-based; conditions: in vivo, dose 4-8 mg/kg
[28] = Toxicity in Kunming mouse assessed as histopathological abnormalities in heart at 4 to 8 mg/kg, sc measured after 24 hrs by H and E staining based analysis; format: organism-based; conditions: in vivo, dose 4-8 mg/kg
[29] = Toxicity in Kunming mouse assessed as histopathological abnormalities in liver at 4 to 8 mg/kg, sc measured after 24 hrs by H and E staining based analysis; format: organism-based; conditions: in vivo, dose 4-8 mg/kg
Staphylococcus aureus [30] = assay: Antibacterial activity against Staphylococcus aureus ATCC 29213 measured after 16 to 18 hrs by CLSI method; format: functional; conditions: time 16-18 hrs
Staphylococcus aureus [31] = assay: Antibacterial activity against methicillin-resistant Staphylococcus aureus clinical isolate MRSA-13 measured after 16 to 18 hrs by CLSI method; format: functional; conditions: time 16-18 hrs
Staphylococcus aureus [32] = assay: Antibacterial activity against methicillin-resistant Staphylococcus aureus clinical isolate MRSA-16 measured after 16 to 18 hrs by CLSI method; format: functional; conditions: time 16-18 hrs
Staphylococcus aureus [33] = assay: Antibacterial activity against methicillin-resistant Staphylococcus aureus clinical isolate MRSA-17 measured after 16 to 18 hrs by CLSI method; format: functional; conditions: time 16-18 hrs
Staphylococcus aureus [34] = assay: Antibacterial activity against methicillin-resistant Staphylococcus aureus clinical isolate MRSA-18 measured after 16 to 18 hrs by CLSI method; format: functional; conditions: time 16-18 hrs
Staphylococcus aureus [35] = assay: Antibacterial activity against methicillin-resistant Staphylococcus aureus clinical isolate MRSA-21 measured after 16 to 18 hrs by CLSI method; format: functional; conditions: time 16-18 hrs
Staphylococcus aureus [36] = assay: Antibacterial activity against methicillin-resistant Staphylococcus aureus clinical isolate MRSA-23 measured after 16 to 18 hrs by CLSI method; format: functional; conditions: time 16-18 hrs
[37] = Selectivity index, ratio of HC50 for hemolytic activity in sheep erythrocytes to MIC for antibacterial activity against Staphylococcus aureus ATCC 29213; format: toxicity, cell-based; conditions: read-out: Selectivity Index

In the case of `CCCC[N+](C)(CCCC)CCCCCOc1ccc(C2CC(=O)c3c(OC)cc(OCCCCC[N+](C)(CCCC)CCCC)c(CC=C(C)C)c3O2)cc1.[I-].[I-]` (configuration not stated), the Activity (Staphylococcus aureus [1]) was 100%, the Activity (Staphylococcus aureus [2]) was “Dose-Dependent Effect” and the Activity (Staphylococcus aureus [3]) was “inactive”. The MIC (Staphylococcus aureus [4]) was 1 µg/mL, the Activity (Staphylococcus aureus [5]) was “Active” and the fold change (FC) (Cell membrane [6]) was 4.5. For the same compound, the Activity (Cell membrane [7]) was “Active”, the fold change (FC) (Cell membrane [8]) was 7 and the Activity (Cell membrane [9]) was 99.2%. For the same compound, the Activity (Cell membrane [10]) was 0%, the Activity (Cell membrane [11]) was 0.02% and the viability [12] was 100%. For the same compound, the Activity [13] was “Toxic”, the Activity [14] was “Non-Toxic” and the Activity [15] was “Non-Toxic”. For the same compound, the Activity [16] was “Non-Toxic”, the Activity [17] was “Non-Toxic” and the Activity (Staphylococcus aureus [18]) was “inactive”. The Activity (Staphylococcus aureus [19]) was “Active”, the Activity (Staphylococcus aureus [20]) was “Active” and the Activity (Staphylococcus aureus [21]) was “Active”. For the same compound, the Activity (Staphylococcus aureus [22]) was 99.86%, the Activity (Staphylococcus aureus [23]) was 3.2 log10CFU/g and the Activity [24] was “Non-Toxic”. The Activity [25] was “Non-Toxic”, the Activity [26] was “Non-Toxic” and the Activity [27] was “Non-Toxic”. The Activity [28] was “Non-Toxic”, the Activity [29] was “Non-Toxic” and the MIC (Staphylococcus aureus [30]) was 1 µg/mL. It also gave an MIC (Staphylococcus aureus [31]) of 0.25 µg/mL, an MIC (Staphylococcus aureus [32]) of 0.25 µg/mL and an MIC (Staphylococcus aureus [33]) of 0.25 µg/mL. For the same compound, the MIC (Staphylococcus aureus [34]) was 0.5 µg/mL, the MIC (Staphylococcus aureus [35]) was 0.25 µg/mL and the MIC (Staphylococcus aureus [36]) was 0.25 µg/mL. For the same compound, the selectivity ratio [37] was over 1280.
